Assay results reported in the supplement of paper PMC13380429.
± gives the standard deviation of the averaged measurements.

Assays:
Conditions in all cases: 72 h
Caco-2 [1] = assay: cell viability relative to DMSO; higher = less toxic
Calu-3 [2] = assay: as above
HepG2 [3] = assay: as above
U2OS [4] = assay: as above
Vero E6 [5] = assay: as above
Caco-2 [6] = assay: relative viability EC50 (midpoint between 100% and the lowest measured viability); higher = less toxic
Calu-3 [7] = assay: as above
HepG2 [8] = assay: as above
U2OS [9] = assay: as above
Vero E6 [10] = assay: as above
Caco-2 [11] = assay: drug sensitivity score (DSS) for viability; higher = more toxic; extreme values may be limits of the assay
Calu-3 [12] = assay: as above
HepG2 [13] = assay: as above
U2OS [14] = assay: as above
Vero E6 [15] = assay: as above

Row | SMILES | cell viability (Caco-2 [1]; 1 nM) | cell viability (Caco-2 [1]; 10 nM) | cell viability (Caco-2 [1]; 100 nM) | cell viability (Caco-2 [1]; 1000 nM) | cell viability (Caco-2 [1]; 10000 nM) | cell viability (Calu-3 [2]; 1 nM) | cell viability (Calu-3 [2]; 10 nM) | cell viability (Calu-3 [2]; 100 nM) | cell viability (Calu-3 [2]; 1000 nM) | cell viability (Calu-3 [2]; 10000 nM) | cell viability (HepG2 [3]; 1 nM) | cell viability (HepG2 [3]; 10 nM) | cell viability (HepG2 [3]; 100 nM) | cell viability (HepG2 [3]; 1000 nM) | cell viability (HepG2 [3]; 10000 nM) | cell viability (U2OS [4]; 1 nM) | cell viability (U2OS [4]; 10 nM) | cell viability (U2OS [4]; 100 nM) | cell viability (U2OS [4]; 1000 nM) | cell viability (U2OS [4]; 10000 nM) | cell viability (Vero E6 [5]; 1 nM) | cell viability (Vero E6 [5]; 10 nM) | cell viability (Vero E6 [5]; 100 nM) | cell viability (Vero E6 [5]; 1000 nM) | cell viability (Vero E6 [5]; 10000 nM) | relative viability EC50 (Caco-2 [6]) | relative viability EC50 (Calu-3 [7]) | relative viability EC50 (HepG2 [8]) | relative viability EC50 (U2OS [9]) | relative viability EC50 (Vero E6 [10]) | drug sensitivity score (Caco-2 [11]) | drug sensitivity score (Calu-3 [12]) | drug sensitivity score (HepG2 [13]) | drug sensitivity score (U2OS [14]) | drug sensitivity score (Vero E6 [15])
1 | N[C@H](C(=O)O)c1ccc(O)c(C(=O)O)c1 [3-carboxy-4-hydroxyphenylglycine-(S)] | 95.6 ± 1.8% | 101 ± 1.3% | 95.2 ± 2.6% | 93.4 ± 0.57% | 101 ± 4.5% | 96.5 ± 5.7% | 89 ± 0.99% | 96 ± 4.8% | 94.2 ± 3% | 101 ± 3% | 102.2 ± 0.28% | 97.5 ± 5.9% | 98.7 ± 0.28% | 100 ± 2.3% | 100 ± 1.3% | 101 ± 0.71% | 101 ± 1.9% | 103 ± 2.5% | 94.8 ± 4.5% | 102 ± 0.49% | 104 ± 7.1% | 103.7 ± 0.35% | 99 ± 2.3% | 106 ± 3.2% | 101 ± 2.1% | > 10 µM | > 10 µM | > 10 µM | > 10 µM | > 10 µM | 0 | 0 | 0 | 0 | 0
2 | CC(=O)N[C@@H](CS)C(=O)O [acetylcysteine] | 105% | 87.1% | 98.1% | 101% | 100% | 101% | 101% | 93% | 96.2% | 104% | 99.2% | 103% | 94.9% | 103% | 104% | 99.1% | 97.2% | 100% | 95.5% | 102% | 104% | 106% | 102% | 103% | 97.8% | > 10 µM | > 10 µM | > 10 µM | > 10 µM | > 10 µM | 0 | 0 | 0 | 0 | 0
3 | O=C1O[C@H]([C@@H](O)CO)C([O-])=C1O.[Na+] [sodium-ascorbate] | 91.7% | 93.1% | 98.9% | 95.2% | 102% | 100% | 102% | 97% | 98.5% | 102% | 96.8% | 104% | 92.1% | 110% | 111% | 97.9% | 89.9% | 101% | 97.7% | 103% | 97.5% | 107% | 97.2% | 100% | 106% | > 10 µM | > 10 µM | > 10 µM | > 10 µM | > 10 µM | 0 | 0 | 0 | 0 | 0
4 | C=CCC1(CC(C)C)C(=O)NC(=O)NC1=O [butalbital] | 82.1% | 114% | 80.1% | 105% | 102% | 94.5% | 96.7% | 102% | 103% | 114% | 108% | 99.6% | 92.5% | 109% | 94.8% | 95.1% | 97.6% | 98.8% | 94.3% | 112% | 105% | 106% | 118% | 109% | 89.9% | > 10 µM | > 10 µM | > 10 µM | > 10 µM | > 10 µM | 0 | 0 | 0 | 0 | 0
5 | Fc1ccc2nc(CCC#Cc3ccccn3)cn2c1 [dipraglurant] | 102% | 94.2% | 106% | 99.5% | 99.3% | 92.1% | 100% | 95.2% | 99.4% | 88% | 99.9% | 99.8% | 103% | 104% | 106% | 100% | 97.3% | 95.3% | 93.9% | 99.9% | 94.8% | 100% | 91.6% | 93.3% | 110% | > 10 µM | > 10 µM | > 10 µM | > 10 µM | > 10 µM | 0 | 0.1 | 0 | 0 | 0
6 | O=c1c2ccccc2oc2ccccc12 [xanthone] | 102% | 98.6% | 101% | 95.1% | 106% | 95.3% | 96.5% | 103% | 104% | 104% | 108% | 93.8% | 93.5% | 110% | 93.6% | 101% | 94.9% | 99% | 97.9% | 100% | 104% | 100% | 101% | 99.1% | 95.9% | > 10 µM | > 10 µM | > 10 µM | > 10 µM | > 10 µM | 0 | 0 | 0 | 0 | 0
7 | CC[C@H](CC[C@@H](C)[C@H]1CC[C@H]2[C@@H]3CC=C4C[C@@H](O)CC[C@]4(C)[C@H]3CC[C@]12C)C(C)C [beta-Sitosterol] | 95.1% | 108% | 99.4% | 97.6% | 107% | 91.6% | 105% | 99% | 93.7% | 106% | 88.3% | 114% | 93.3% | 98.8% | 109% | 96.4% | 99.1% | 99.6% | 101% | 97.4% | 92.7% | 105% | 92.4% | 99.2% | 108% | > 10 µM | > 10 µM | > 10 µM | > 10 µM | > 10 µM | 0 | 0 | 0 | 0 | 0
8 | C=CCCCCCCCCC(=O)[O][Zn][O]C(=O)CCCCCCCCC=C [zinc-undecylenate] | 94.4% | 96.3% | 98.2% | 96.6% | 86.9% | 95.7% | 100% | 101% | 95.6% | 116% | 102% | 98.8% | 99.3% | 100% | 92% | 97.7% | 98.8% | 98.4% | 95.1% | 99.1% | 105% | 95.9% | 94.8% | 98.5% | 93.9% | > 10 µM | > 10 µM | > 10 µM | > 10 µM | > 10 µM | 0.3 | 0 | 0 | 0 | 0
9 | O=c1ccn([C@@H]2O[C@H](COP(=O)(O)OP(=O)(O)OP(=O)(O)O)[C@@H](O)[C@H]2O)c(=O)[nH]1 [INS316] | 102 ± 6% | 107 ± 18% | 109 ± 1.8% | 113 ± 26% | 93.5 ± 13% | 94.5 ± 3.1% | 95.8 ± 7.1% | 92.5 ± 1.9% | 100.8 ± 0.21% | 101 ± 7.7% | 100 ± 1.2% | 107 ± 2% | 109 ± 10% | 105 ± 3% | 103 ± 5.7% | 99.4 ± 5.7% | 95.9 ± 3.8% | 103 ± 7.8% | 96.3 ± 6.7% | 105 ± 1.8% | 98.6 ± 2.5% | 93.3 ± 11% | 98.2 ± 2.6% | 98.5 ± 4.2% | 99.1 ± 3.1% | > 10 µM | > 10 µM | > 10 µM | > 10 µM | > 10 µM | 0 | 0 | 0 | 0 | 0
10 | N=C(Nc1ccccc1)c1cccs1 [LTA] | 89.4% | 88.4% | 98.1% | 93.7% | 82.8% | 97.6% | 104% | 97.4% | 104% | 91.6% | 105% | 105% | 96.8% | 99.1% | 110% | 99.9% | 104% | 95.9% | 104% | 95.7% | 99.7% | 101% | 93.5% | 99.1% | 103% | > 10 µM | > 10 µM | > 10 µM | > 10 µM | > 10 µM | 0 | 0 | 0 | 0 | 0
11 | O=C1NCN(c2ccccc2)C12CCN(CC1COc3ccccc3O1)CC2 (stereo not given) [spiroxatrine] | 95.2% | 101% | 101% | 100% | 98.2% | 98.3% | 99% | 92% | 100% | 104% | 87.5% | 94.3% | 87.6% | 104% | 103% | 106% | 98% | 99.3% | 94.8% | 99% | 103% | 99.8% | 104% | 97.9% | 109% | > 10 µM | > 10 µM | > 10 µM | > 10 µM | > 10 µM | 0 | 0 | 0 | 0 | 0
12 | Cc1csc(S(=O)(=O)N(CC(C)C)c2cc3c(cc2OCc2ccc(C(=O)O)cc2)CCC3)n1 [ONO-8130] | 99% | 104% | 96.4% | 99.2% | 91.6% | 98.5% | 101% | 97.6% | 98.5% | 99.5% | 110% | 95.3% | 96.8% | 94.8% | 93.6% | 97.9% | 103% | 97.5% | 101% | 95.1% | 107% | 102% | 99.3% | 97% | 98.6% | > 10 µM | > 10 µM | > 10 µM | > 10 µM | > 10 µM | 0 | 0 | 0 | 0 | 0
